# Test results published in PubChem BioAssay AID489034 (Sanford-Burnham Center for Chemical Genomics, 2010).
# pIC50: −log10 of the molar value. The source made the active and inactive calls.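 The calls were made as follows: active = mean IC50 at or below a set limit; inactive = the rest.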
# Test system: 697 B-cell NF-kB luciferase reporter, PMA/ionomycin, 16 h
# Assay: inhibitors of antigen receptor-driven NF-kB, dose response, 697 B cells, PMA/ionomycin, luminescence (AID 489034)
# Conditions: not given
SMILES,pIC50,IC50
Cc1ccc(C(=O)CN2C(=O)c3ccccc3S2(=O)=O)cc1,5.88,–
OCCCNc1cc(-c2ccnc(Nc3cccc(Cl)c3)n2)ccn1,> 6.80,–
N#CC(c1cccc(Cl)c1)c1ccc2c(C(F)(F)F)cc(C(F)(F)F)nc2n1 (configuration not stated),–,> 80000 nM (inactive)
Cc1cc(C(=O)COC(=O)c2ccccc2O)c(C)n1CC1CCCO1 (configuration not stated),6.57,–
COc1ccc(/C=C/c2cc(-c3ccc(C)cc3)o[n+]2C)cc1,5.24,–
O=C(COC(=O)c1ccc[nH]c1=O)Nc1ccc(N2CCCCC2)cc1,6.36,–
CC(=O)OC[C@]12CCC(C)=C[C@H]1O[C@@H]1[C@H](O)[C@@H](OC(C)=O)[C@@]2(C)[C@]12CO2,> 6.80,–
CC(=O)c1cn(Cc2ccccc2C#N)c2ccccc12,–,> 80000 nM (inactive)
CCCCCCn1c2c(c(=N)c3c1CCC3)CCC2,–,> 80000 nM (inactive)
Cc1ccc(OCCN2CCN(c3ncnc4sc(C)c(C)c34)CC2)cc1,–,> 80000 nM (inactive)
CC1CCc2c(sc(NC(=O)CSc3ncn[nH]3)c2C#N)C1 (configuration not stated),6.68,–
COc1cccc2c1C(=O)c1c(O)c3c(c(O)c1C2=O)C[C@@](O)(C(=O)CO)C[C@@H]3O[C@H]1C[C@H](N)[C@H](O)[C@H](C)O1,–,> 80000 nM (inactive)
O=C(CCl)N=c1sccn1Cc1ccccc1Cl,6.65,–
N#Cc1c(NC(=O)CSc2ncn[nH]2)sc2c1CCCCC2,6.55,–
O=S(=O)(NCC1CCCO1)c1ccc(-c2ccc(S(=O)(=O)NCC3CCCO3)cc2)cc1 (configuration not stated),–,> 80000 nM (inactive)
CCCCCNC(=O)c1ccc2c(=O)n(CC3CCCO3)c(=O)[nH]c2c1 (configuration not stated),–,> 80000 nM (inactive)
COc1ccc(OC)c(C2C3=C(COC3=O)Nc3cc4c(cc32)OCO4)c1 (configuration not stated),–,> 80000 nM (inactive)
CC(=O)O[C@H]1[C@H]2O[C@]23[C@@H]2CC[C@]4(O)C[C@@H](O)CC[C@]4(C)C2CC[C@]3(C)[C@H]1c1ccc(=O)oc1 (some centres not stated),6.65,–
C=C1C(=O)O[C@@H]2C[C@@H](C)[C@@H]3C=CC(=O)[C@@]3(C)[C@@H](O)[C@H]12,–,> 80000 nM (inactive)
CCCCCCCCn1ccc(=N)cc1,–,> 80000 nM (inactive)
CCCCCCCCCn1ccc(=N)cc1,–,46200 nM (inactive)
Cc1nn(-c2ccccc2)c(C)c1/C=N/NC(=O)c1cc(-c2cccs2)[nH]n1,–,21500 nM (inactive)
Cc1ccc(Cn2ccsc2=NC(=O)CCl)cc1,6.31,–
COC(=O)CCn1nnc(-c2ccc(C(C)C)cc2)n1,> 6.80,–
CCn1c(C)nc2cc(-c3nc4n(n3)Cc3ccccc3-4)ccc21,6.70,–

SMILES,pIC50,IC50
CCc1cc2c(Sc3nc4ccccc4s3)ncnc2s1,> 6.80,–
C#CC(=O)N(c1cc(OC)ccc1OC)C(C(=O)NC1CCCC1)c1cccs1 (configuration not stated),6.66,–
CCOc1ccc(-c2cc(CCCC(=O)Nc3cccc(OC)c3)no2)cc1,4.95,–
O=C(NCCc1ccccc1)c1ccc2c(c1)OCCCO2,6.44,–
CC1CCCN(c2ccc([N+](=O)[O-])cc2C(=O)c2ccccc2)C1 (configuration not stated),–,> 80000 nM (inactive)
CCOc1ccc(-n2c(-c3ccc(OC)cc3)c[n+]3c2CCCCC3)cc1,–,> 80000 nM (inactive)
N#Cc1c(NC(=O)CSc2ncn[nH]2)sc2c1CCCC2,6.52,–
COc1ccc(C(=O)Nc2nc3ccccc3s2)c(OC)c1,6.56,–
C[C@@H]1C[C@@H]2O[C@H]2/C=C\C=C\C(=O)Cc2c(Cl)c(O)cc(O)c2C(=O)O1,6.56,–
CC(C)(O)c1[nH]c2ccc(C#N)cc2c1C(C)(C)O,–,> 80000 nM (inactive)
CC(C)(C)c1ccc(C(=O)Nc2ccc(CC(=O)O)cc2)o1,> 6.80,–
COc1cc(NC(=O)COc2cc(O)c3c(c2)OC(C)(C)CC3=O)cc(OC)c1OC,–,36900 nM (inactive)
Nc1ncnc2c1ccn2[C@@H]1O[C@H](CO)[C@@H](O)[C@H]1O,6.00,–
O=C(O)CSCC(=O)Nc1ccc(C2CCCCC2)cc1,6.11,–
O=C(CCl)N=c1sccn1Cc1ccc(Cl)cc1Cl,> 6.80,–
COc1ccc(CNc2ncc(-c3ccc(F)cc3)n2C)c2ccccc12,5.80,–
Nc1nc(Cl)nc2c1ncn2C1CC(O)C(CO)O1 (configuration not stated),–,> 80000 nM (inactive)
COc1cc(CSc2nnnn2-c2ccc(C)cc2)cc(OC)c1OC,–,> 80000 nM (inactive)
O=C(CCl)N1CCCC1c1ccc2c(c1)OCCO2 (configuration not stated),6.32,–
CN(C(=O)OC(C)(C)C)c1ccc(-c2nc3ccccc3s2)cc1,> 6.80,–
Cc1cc(N2CCN(c3nc4ccccc4s3)CC2)n2ncnc2n1,–,> 80000 nM (inactive)
Cc1cc(Cl)c(S(=O)(=O)N2CCCCCC2)cc1OCC(=O)NC1CCCCC1,–,> 80000 nM (inactive)
O=C(/C=C/c1ccccc1)Nc1cccc(C(=O)O)c1,6.21,–
O=C(CSc1nnnn1C1CC2CCC1C2)Nc1ccnc2ccccc12 (configuration not stated),–,> 80000 nM (inactive)
Cc1cc(Cl)c(S(=O)(=O)N2CCN(c3ccc(F)cc3)CC2)cc1OCC(=O)NC1CCCCC1,–,> 80000 nM (inactive)

# Test system: not listed separately
# Assay: as above
# Conditions: 697 B-cell NF-kB luciferase reporter, PMA/ionomycin, 16 h; at 80 µM (top of the series)
row,SMILES,inhibition
1,N=c1c2c(n(Cc3ccc(Br)cc3)c3c1CCC3)CCCC2,60.6% (inactive)
2,N=c1ccn2c(n1)O[C@H]1[C@@H](CO)[C@H](O)O[C@H]12,48.5%
